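Exposure lasted 48 hours, with cells grown in 96-well plates and compounds tested at five concentrations. Definition used: TGI = concentration required for complete inhibition of growth.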
Assays:
Assay in all cases: NCI-60 cell line screen, 48 h
SF-539 CNS = test system: SF-539 CNS
CCRF-CEM leukemia = test system: CCRF-CEM leukemia
TK-10 renal = test system: TK-10 renal
CAKI-1 renal = test system: CAKI-1 renal
UACC-62 melanoma = test system: UACC-62 melanoma
HOP-62 NSCLC = test system: HOP-62 NSCLC
HT29 colon = test system: HT29 colon
UACC-257 melanoma = test system: UACC-257 melanoma
M14 melanoma = test system: M14 melanoma
786-0 renal = test system: 786-0 renal
A549 NSCLC = test system: A549 NSCLC
NCI-H23 lung = test system: NCI-H23 lung
OVCAR-3 ovarian = test system: OVCAR-3 ovarian
HL-60(TB) leukemia = test system: HL-60(TB) leukemia
SK-OV-3 ovarian = test system: SK-OV-3 ovarian
HCC-2998 colon = test system: HCC-2998 colon
KM12 colon = test system: KM12 colon
SK-MEL-5 melanoma = test system: SK-MEL-5 melanoma
T-47D breast = test system: T-47D breast
SK-MEL-2 melanoma = test system: SK-MEL-2 melanoma
ACHN renal = test system: ACHN renal
MCF7 breast = test system: MCF7 breast
SK-MEL-28 melanoma = test system: SK-MEL-28 melanoma
MDA-N = test system: MDA-N
UO-31 renal = test system: UO-31 renal
OVCAR-8 ovarian = test system: OVCAR-8 ovarian
HCT-116 colon = test system: HCT-116 colon
HS 578T breast = test system: HS 578T breast
A498 renal = test system: A498 renal
COLO 205 colon = test system: COLO 205 colon
DU-145 prostate = test system: DU-145 prostate
LOX IMVI melanoma = test system: LOX IMVI melanoma
PC-3 prostate = test system: PC-3 prostate
RXF 393 renal = test system: RXF 393 renal
SF-295 CNS = test system: SF-295 CNS
HCT-15 colon = test system: HCT-15 colon
MALME-3M melanoma = test system: MALME-3M melanoma
EKVX NSCLC = test system: EKVX NSCLC
SR leukemia = test system: SR leukemia
K-562 leukemia = test system: K-562 leukemia
OVCAR-5 ovarian = test system: OVCAR-5 ovarian
OVCAR-4 ovarian = test system: OVCAR-4 ovarian
NCI-H226 lung = test system: NCI-H226 lung
NCI/ADR-RES ovarian = test system: NCI/ADR-RES ovarian
U251 CNS = test system: U251 CNS
SNB-19 CNS = test system: SNB-19 CNS
HOP-92 NSCLC = test system: HOP-92 NSCLC
MDA-MB-231 breast = test system: MDA-MB-231 breast
SNB-75 CNS = test system: SNB-75 CNS
RPMI-8226 leukemia = test system: RPMI-8226 leukemia
IGROV1 ovarian = test system: IGROV1 ovarian
SN12C renal = test system: SN12C renal
NCI-H522 lung = test system: NCI-H522 lung
BT-549 breast = test system: BT-549 breast
MDA-MB-435 = test system: MDA-MB-435
SF-268 CNS = test system: SF-268 CNS
SW-620 colon = test system: SW-620 colon
NCI-H460 lung = test system: NCI-H460 lung

For `COC(=O)CC1C=CC(C)(OC)OO1` (stereo not drawn), the TGI (SF-539 CNS) was > 100 µM, the TGI (CCRF-CEM leukemia) was 97.9 µM and the TGI (TK-10 renal) was > 100 µM. The TGI (CAKI-1 renal) was > 100 µM, the TGI (UACC-62 melanoma) was > 100 µM and the TGI (HOP-62 NSCLC) was > 100 µM. The TGI (HT29 colon) was > 100 µM, the TGI (UACC-257 melanoma) was > 100 µM and the TGI (M14 melanoma) was > 100 µM. The TGI (786-0 renal) was > 100 µM, the TGI (A549 NSCLC) was > 100 µM and the TGI (NCI-H23 lung) was > 100 µM. The TGI (OVCAR-3 ovarian) was > 100 µM, the TGI (HL-60(TB) leukemia) was > 100 µM and the TGI (SK-OV-3 ovarian) was > 100 µM. The TGI (HCC-2998 colon) was > 100 µM, the TGI (KM12 colon) was > 100 µM and the TGI (SK-MEL-5 melanoma) was > 100 µM. For the same compound, the TGI (T-47D breast) was > 100 µM, the TGI (SK-MEL-2 melanoma) was > 100 µM and the TGI (ACHN renal) was > 100 µM. For the same compound, the TGI (MCF7 breast) was > 100 µM, the TGI (SK-MEL-28 melanoma) was > 100 µM and the TGI (MDA-N) was > 100 µM. The TGI (UO-31 renal) was > 100 µM, the TGI (OVCAR-8 ovarian) was > 100 µM and the TGI (HCT-116 colon) was > 100 µM. The TGI (HS 578T breast) was > 100 µM, the TGI (A498 renal) was > 100 µM and the TGI (COLO 205 colon) was > 100 µM. For the same compound, the TGI (DU-145 prostate) was > 100 µM, the TGI (LOX IMVI melanoma) was > 100 µM and the TGI (PC-3 prostate) was > 100 µM. For the same compound, the TGI (RXF 393 renal) was > 100 µM, the TGI (SF-295 CNS) was > 100 µM and the TGI (HCT-15 colon) was > 100 µM. For the same compound, the TGI (MALME-3M melanoma) was > 100 µM, the TGI (EKVX NSCLC) was > 100 µM and the TGI (SR leukemia) was > 100 µM. For the same compound, the TGI (K-562 leukemia) was > 100 µM, the TGI (OVCAR-5 ovarian) was > 100 µM and the TGI (OVCAR-4 ovarian) was > 100 µM. For the same compound, the TGI (NCI-H226 lung) was > 100 µM, the TGI (NCI/ADR-RES ovarian) was > 100 µM and the TGI (U251 CNS) was > 100 µM. The TGI (SNB-19 CNS) was > 100 µM, the TGI (HOP-92 NSCLC) was > 100 µM and the TGI (MDA-MB-231 breast) was > 100 µM. For the same compound, the TGI (SNB-75 CNS) was > 100 µM, the TGI (RPMI-8226 leukemia) was > 100 µM and the TGI (IGROV1 ovarian) was > 100 µM. The TGI (SN12C renal) was > 100 µM, the TGI (NCI-H522 lung) was 55.5 µM and the TGI (BT-549 breast) was > 100 µM. For the same compound, the TGI (MDA-MB-435) was > 100 µM, the TGI (SF-268 CNS) was > 100 µM and the TGI (SW-620 colon) was > 100 µM. The TGI (NCI-H460 lung) was 24.4 µM.

Reference: PubChem BioAssay (NCI)
